# Read-outs that look alike come from different tables or passages of the source.
# Legend:
# MycG4 (MycPu22 DNA) = assay: FRET-melting assay (thermal stabilization of MycG4); format: binding, human; conditions: FIG. 4
# Protocol: To confirm the stabilizing effect of indenoisoquinolines on MycG4, the Tm values of MycG4 were measured in the presence of indenoisoquinoline compounds in 10 mM K^+ using dual-3′-FAM- and 5′-TAMRA-labeled MycPu22 DNA by FRET-melting experiments. MycPu22 DNA forms a single MycG4 structure and was used for NMR structure determination (FIG. 1B, right).^43 Therefore, MycPu22 provides the best molecular system for MycG4 and was used in all the subsequent experiments. […] (FIG. 2B). A clear positive correlation was observed between the indenoisoquinolines' ability to induce MycG4 formation and to increase its thermal stability (FIG. 2C).
# FRET-melting experiments. The stock solution containing 100 μM 3′-TAMRA (Ex. 555 nm/Em. 580 nm), 5′-FAM (Ex. 490 nm/Em. 520 nm) dual-labeled MycPu22 DNA sequence was first diluted to 2 μM using 7.5 mM KCl, 2.5 mM phosphate buffer, pH 7.0. […] With gradually increasing temperature, the MycPu22 DNA is unfolded from the G4 form to a single-stranded conformation where the FAM is far apart to the TAMRA, which results in a high FAM fluorescence. Melting curves for the determination of Tm were then obtained by recording FAM fluorescence with increasing temperatures from 25 to 95° C. at a rate of 0.9° C./min using a QuantStudio 6 Flex Real-Time PCR System. The Tm values were determined by the maximum of the first derivative plot of the melting curves. […]
# NCI-60 cancer cell lines = assay: NCI-60 cancer cell line drug screen (GI50, MGM); format: cell-based, human; conditions: Homo sapiens; for GI50: read-out: Antiproliferative Activities [GI50 (μM)]
# Protocol: Cancer cells were incubated with the test compounds at five concentrations ranging from 100 μM to 10 nM for 48 h. […] The approximate average of GI50 values across the entire panel of NCI-60 cancer cell lines for each compound was recorded as the MGM value.
# [1] = test system: MYC protein expression in MCF-7 breast cancer cells; assay: Western blotting of MYC protein level in MCF-7 cells; format: cell-based, human; conditions: Homo sapiens, MCF7; western blotting, MCF-7 cells, 0.5, 1, 2, and 4 μM, 24 hours; read-out: MYC Inhibition
# Protocol: MCF-7 cells were incubated with each compound at four concentrations (0.5, 1, 2, and 4 μM) for 24 hours, and the MYC protein levels were measured (FIG. 3A and FIGS. 12 A to 12 F).
# Cells were incubated at 37° C. with 5% CO2.
# The gels were cut into strips that contained the proteins of interest and transferred to nitrocellulose membrane (I323002, Invitrogen) using an iBlot 2 Dry Transfer Device (Invitrogen). Immunoblotting was carried out according to standard procedures using the ECL detection method. The membrane was hybridized with the following antibodies: monoclonal anti-MYC (1:1000 dilution; rabbit, Cell Signaling Technology), monoclonal anti-GAPDH (1:2000 dilution; rabbit, Cell Signaling Technology).
MycG4 binding and stabilizing activity (SAR) (MycG4 (MycPu22 DNA)),SMILES,"GI50 (NCI-60 cancer cell lines; A549, Non-Small Cell Lung Cancer, A549/ATCC) [µM]","GI50 (NCI-60 cancer cell lines; CCRF-CEM, Leukemia, CCRF-CEM) [µM]","GI50 (NCI-60 cancer cell lines; COLO 205, Colon Cancer, COLO 205) [µM]","GI50 (NCI-60 cancer cell lines; EKVX, Non-Small Cell Lung Cancer, EKVX) [µM]","GI50 (NCI-60 cancer cell lines; HCC 2998, Colon Cancer, HCC-2998) [µM]","GI50 (NCI-60 cancer cell lines; HCT-116, Colon Cancer, HCT-116) [µM]","GI50 (NCI-60 cancer cell lines; HL-60, Leukemia, HL-60(TB)) [µM]","GI50 (NCI-60 cancer cell lines; HOP-92, Non-Small Cell Lung Cancer, HOP-92) [µM]","GI50 (NCI-60 cancer cell lines; Leukemia, SR) [µM]","GI50 (NCI-60 cancer cell lines; MOLT-4, Leukemia, MOLT-4) [µM]","GI50 (NCI-60 cancer cell lines; NCI-H23, Non-Small Cell Lung Cancer, NCI-H23) [µM]","GI50 (NCI-60 cancer cell lines; NCI-H226, Non-Small Cell Lung Cancer, NCI-H226) [µM]","GI50 (NCI-60 cancer cell lines; NCI-H322M, Non-Small Cell Lung Cancer, NCI-H322M) [µM]","GI50 (NCI-60 cancer cell lines; NCI-H460, Non-Small Cell Lung Cancer, NCI-H460) [µM]","GI50 (NCI-60 cancer cell lines; NCI-H522, Non-Small Cell Lung Cancer, NCI-H522) [µM]","GI50 (NCI-60 cancer cell lines; RPMI-8226, Leukemia, RPMI-8226) [µM]",mean GI50 across NCI-60 panel (MGM) (NCI-60 cancer cell lines; average of GI50 values across the entire panel of NCI-60 cancer cell lines) [nM],minimal effective concentration [1] [µM]
weakened,O=C1c2ccccc2-c2c1c1ccccc1c(=O)n2CCCN1CCOCC1 [Compound 16],–,–,–,–,–,–,–,–,–,–,–,–,–,–,–,–,–,–
medium,COc1cc2c3c(n(CCCN(C)C)c(=O)c2cc1OC)-c1cc2c(cc1C3=O)OCO2 [Compound 47],0.89,< 0.01,0.94,1.46,0.13,0.22,1.6,1.3,< 0.01,< 0.01,0.19,1.4,1.56,0.28,0.31,0.3,390,2

# From patent publication US20210382058A1, “PATIENT SELECTION FOR TREATMENT OF MYC POSITIVE CANCERS WITH INDENOISOQUINOLINES” (Purdue Research Foundation, priority 2020, published 2021)
